Species on record: Rattus norvegicus
Assay: Open TG-GATES - Regimen: Daily Repeat
Format: toxicity, organism-based, Sprague-Dawley
Set-up: regimen Daily Repeat, gender Male, age 6 weeks
Conditions: in vivo, po, route diet; for Hb / Ht / MCH / MCHC / MCV / Plat / RBC / Ret / WBC: tissue Blood; for KIDNEY_L / KIDNEY_R / KIDNEY_TOTAL: tissue Kidney; for LIVER: tissue Liver; for A/G / ALP / ALT / AST / BUN / CRE / Ca / Cl / DBIL / GLC / IP / K / LDH / Na / PL / RALB / TBIL / TC / TG / TP / gamma-GTP: tissue Plasma
[1] = 72 h, dose 0 %, dose level Control, time 3 day
[2] = 72 h, dose 9999 %, dose level High, time 3 day
[3] = […], dose 0 %, dose level Control, time 7 day
[4] = […], dose 0 %, dose level Control, time 14 day
[5] = […], dose 0 %, dose level Control, time 28 day
[6] = […], dose 9999 %, dose level High, time 7 day
[7] = […], dose 9999 %, dose level High, time 14 day
[8] = […], dose 9999 %, dose level High, time 28 day

## CC(C)CCC[C@@H](C)[C@H]1CC[C@H]2[C@@H]3CC=C4C[C@@H](O)CC[C@]4(C)[C@H]3CC[C@]12C.C[C@H](CCC(=O)[O-])[C@H]1CC[C@@H]2[C@]1(C)[C@@H](O)C[C@@H]1[C@@]3(C)CC[C@@H](O)C[C@H]3C[C@@H](O)[C@@]21C.[Na+] [cholesterol + sodium cholate]
[1]
  TERMINAL_BW: 232.1 g
  Hb: 12.9 g/dL
  Ht: 35.6%
  MCH: 23.1 pg
  MCHC: 36.2%
  MCV: 63.7 fL
  Plat: 121.7 x10_4/uL
  RBC: 558.2 x10_4/ul
  Ret: 6.9%
  WBC: 5.6 x10_2/uL
  KIDNEY_L: 1 g
  KIDNEY_R: 1 g
  KIDNEY_TOTAL: 2 g
  LIVER: 10.6 g
  A/G: 1
  ALP: 1907.2 IU/L
  ALT: 41.8 IU/L
  AST: 69 IU/L
  BUN: 17.8 mg/dL
  CRE: 0.2 mg/dL
  Ca: 10.6 mg/dL
  Cl: 102.1 meq/L
  DBIL: 0 mg/dL
  GLC: 176 mg/dL
  IP: 7.2 mg/dL
  K: 4.3 meq/L
  LDH: 113.2 IU/L
  Na: 139.7 meq/L
  PL: 161.4 mg/dL
  RALB: 2.9 g/dL
  TBIL: 0 mg/dL
  TC: 75 mg/dL
  TG: 106.9 mg/dL
  TP: 5.7 g/dL
  gamma-GTP: 0.9 IU/L
[2]
  TERMINAL_BW: 241.9 g
  Hb: 12.6 g/dL
  Ht: 35%
  MCH: 22.5 pg
  MCHC: 35.9%
  MCV: 62.6 fL
  Plat: 107.6 x10_4/uL
  RBC: 559.2 x10_4/ul
  Ret: 7%
  WBC: 5.8 x10_2/uL
  KIDNEY_R: 1.1 g
  KIDNEY_TOTAL: 2.1 g
  LIVER: 12.1 g
  ALP: 2118 IU/L
  ALT: 42.4 IU/L
  AST: 72.2 IU/L
  BUN: 20.4 mg/dL
  Ca: 10.8 mg/dL
  Cl: 101.4 meq/L
  GLC: 182.8 mg/dL
  IP: 7.7 mg/dL
  K: 4.5 meq/L
  LDH: 149.4 IU/L
  Na: 139.4 meq/L
  PL: 157.4 mg/dL
  TC: 187.2 mg/dL
  TG: 136.6 mg/dL
  TP: 5.9 g/dL
  gamma-GTP: 0.8 IU/L
[3]
  TERMINAL_BW: 274.4 g
  Hb: 13.2 g/dL
  Ht: 36.5%
  MCH: 22.4 pg
  MCHC: 36.1%
  MCV: 62.2 fL
  Plat: 127.7 x10_4/uL
  RBC: 587.8 x10_4/ul
  Ret: 5.5%
  WBC: 8.6 x10_2/uL
  KIDNEY_L: 1.1 g
  KIDNEY_R: 1.1 g
  KIDNEY_TOTAL: 2.2 g
  LIVER: 12.4 g
  A/G: 1
  ALP: 1589.8 IU/L
  ALT: 34 IU/L
  AST: 67.4 IU/L
  BUN: 19.6 mg/dL
  CRE: 0.2 mg/dL
  Ca: 10.4 mg/dL
  Cl: 105.2 meq/L
  DBIL: 0 mg/dL
  GLC: 193.4 mg/dL
  IP: 7.3 mg/dL
  K: 4.4 meq/L
  LDH: 160.6 IU/L
  Na: 141.5 meq/L
  PL: 154.8 mg/dL
  RALB: 2.8 g/dL
  TBIL: 0 mg/dL
  TC: 75.4 mg/dL
  TG: 124.4 mg/dL
  TP: 5.7 g/dL
  gamma-GTP: 0.9 IU/L
[4]
  TERMINAL_BW: 313.6 g
  Hb: 12.6 g/dL
  Ht: 38.3%
  MCH: 19.3 pg
  MCHC: 32.8%
  MCV: 58.7 fL
  Plat: 111.1 x10_4/uL
  RBC: 654 x10_4/ul
  Ret: 4.2%
  WBC: 44.3 x10_2/uL
  KIDNEY_L: 1.2 g
  KIDNEY_R: 1.2 g
  KIDNEY_TOTAL: 2.3 g
  LIVER: 13.6 g
  A/G: 1
  ALP: 1612.2 IU/L
  ALT: 38.4 IU/L
  AST: 79.8 IU/L
  BUN: 18.5 mg/dL
  CRE: 0.2 mg/dL
  Ca: 10.5 mg/dL
  Cl: 103.4 meq/L
  DBIL: 0.002 mg/dL
  GLC: 203.6 mg/dL
  IP: 6.5 mg/dL
  K: 3.7 meq/L
  LDH: 284.8 IU/L
  Na: 141.8 meq/L
  PL: 139.4 mg/dL
  RALB: 2.9 g/dL
  TBIL: 0 mg/dL
  TC: 62.4 mg/dL
  TG: 145.6 mg/dL
  TP: 5.8 g/dL
  gamma-GTP: 1 IU/L
[5]
  TERMINAL_BW: 422.8 g
  Hb: 13.3 g/dL
  Ht: 39.2%
  MCH: 18.8 pg
  MCHC: 33.9%
  MCV: 55.4 fL
  Plat: 101.1 x10_4/uL
  RBC: 707.2 x10_4/ul
  Ret: 3%
  WBC: 55.7 x10_2/uL
  KIDNEY_L: 1.4 g
  KIDNEY_R: 1.4 g
  KIDNEY_TOTAL: 2.8 g
  LIVER: 17.9 g
  A/G: 0.8
  ALP: 1365 IU/L
  ALT: 31.4 IU/L
  AST: 56.2 IU/L
  BUN: 17.7 mg/dL
  CRE: 0.2 mg/dL
  Ca: 10.3 mg/dL
  Cl: 103.3 meq/L
  DBIL: 0.006 mg/dL
  GLC: 210.8 mg/dL
  IP: 6.4 mg/dL
  K: 4.2 meq/L
  LDH: 103.6 IU/L
  Na: 139 meq/L
  PL: 143.8 mg/dL
  RALB: 2.8 g/dL
  TBIL: 0 mg/dL
  TC: 68.2 mg/dL
  TG: 180.9 mg/dL
  TP: 6 g/dL
  gamma-GTP: 0.9 IU/L
[6]
  TERMINAL_BW: 281.4 g
  Hb: 12.5 g/dL
  Ht: 34.9%
  MCH: 21.6 pg
  MCHC: 35.7%
  MCV: 60.7 fL
  Plat: 142.4 x10_4/uL
  RBC: 574.8 x10_4/ul
  Ret: 5.6%
  WBC: 7.3 x10_2/uL
  KIDNEY_L: 1.2 g
  KIDNEY_R: 1.2 g
  KIDNEY_TOTAL: 2.4 g
  LIVER: 16.3 g
  A/G: 0.9
  ALP: 1845.8 IU/L
  ALT: 43.4 IU/L
  AST: 79.8 IU/L
  BUN: 18.6 mg/dL
  Ca: 10.7 mg/dL
  Cl: 103.2 meq/L
  GLC: 190 mg/dL
  IP: 7.6 mg/dL
  K: 4.5 meq/L
  LDH: 179.4 IU/L
  Na: 140.8 meq/L
  PL: 174 mg/dL
  RALB: 3 g/dL
  TC: 181 mg/dL
  TG: 141.6 mg/dL
  TP: 6.2 g/dL
  gamma-GTP: 1.1 IU/L
[7]
  TERMINAL_BW: 337.1 g
  Hb: 11.8 g/dL
  Ht: 36%
  MCH: 19.1 pg
  MCHC: 32.7%
  MCV: 58.3 fL
  Plat: 148.5 x10_4/uL
  RBC: 617.4 x10_4/ul
  Ret: 4.7%
  WBC: 30.6 x10_2/uL
  KIDNEY_L: 1.3 g
  KIDNEY_R: 1.4 g
  KIDNEY_TOTAL: 2.6 g
  LIVER: 18.6 g
  A/G: 0.8
  ALP: 1718.2 IU/L
  ALT: 35.4 IU/L
  AST: 68 IU/L
  BUN: 18.4 mg/dL
  Ca: 10.8 mg/dL
  Cl: 101.7 meq/L
  DBIL: 0 mg/dL
  GLC: 200.2 mg/dL
  IP: 6.7 mg/dL
  K: 4.2 meq/L
  LDH: 181.2 IU/L
  Na: 141.2 meq/L
  PL: 142.8 mg/dL
  TC: 158.2 mg/dL
  TG: 121.9 mg/dL
  TP: 6.5 g/dL
  gamma-GTP: 1.1 IU/L
[8]
  TERMINAL_BW: 433.7 g
  Hb: 13.1 g/dL
  Ht: 39%
  MCHC: 33.6%
  MCV: 55.9 fL
  Plat: 116.2 x10_4/uL
  RBC: 698.8 x10_4/ul
  Ret: 3.2%
  WBC: 50.2 x10_2/uL
  KIDNEY_L: 1.6 g
  KIDNEY_R: 1.6 g
  KIDNEY_TOTAL: 3.2 g
  LIVER: 24.7 g
  ALP: 1155 IU/L
  ALT: 34.6 IU/L
  AST: 62.8 IU/L
  BUN: 16.6 mg/dL
  Ca: 10.7 mg/dL
  Cl: 100.9 meq/L
  DBIL: 0 mg/dL
  GLC: 194 mg/dL
  IP: 6.5 mg/dL
  K: 3.9 meq/L
  LDH: 135 IU/L
  Na: 140.2 meq/L
  PL: 146.2 mg/dL
  RALB: 3 g/dL
  TC: 147.6 mg/dL
  TG: 120.2 mg/dL
  TP: 6.8 g/dL

Source: ChEMBL document CHEMBL3885861, “Open TG-GATES”
